Values joined by “and” are separate entries in the source; they are usually repeats but may differ in a detail not shown here. Equal entries are not always repeated. Toxic doses and inconclusive results are not listed.
Tested on: L1210 leukemia ip in BDF1 mice, survival T/C
Test: NCI In Vivo Anticancer Drug Screen. Data for tumor model L1210 Leukemia (intraperitoneal) in B6D2F1 (BDF1) mice
Conditions: endpoint: mean survival time, higher = longer survival
Summary of the method: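 Value reflects the ratio of survival in compound-treated mice to survival in vehicle-treated controls, with both groups carrying the same transplanted tumor.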

[1] = dose: 100.0 mg/kg/injection, schedule: Q01DX001 (ip), vehicle: saline
[2] = dose: 200.0 mg/kg/injection, schedule: Q01DX001 (ip), vehicle: saline
[3] = dose: 100.0 mg/kg/injection, schedule: Q04DX003 (ip), vehicle: saline with Tween-80
[4] = dose: 200.0 mg/kg/injection, schedule: Q04DX003 (ip), vehicle: saline with Tween-80
[5] = dose: 100.0 mg/kg/injection, schedule: Q01DX001 (ip), vehicle: other
[6] = dose: 200.0 mg/kg/injection, schedule: Q01DX001 (ip), vehicle: other
[7] = dose: 400.0 mg/kg/injection, schedule: Q01DX001 (ip), vehicle: other

Structure (SMILES): CN(N=O)C(=O)Nc1ccc(NC(=O)N(C)N=O)cc1
- T/C (dose: 30.0 mg/kg/injection, schedule: Q01DX Z (ip), vehicle: carboxymethylcellulose (CMC)): 162 % of control
- T/C (dose: 40.0 mg/kg/injection, schedule: Q01DX Z (ip), vehicle: carboxymethylcellulose (CMC)): 151 % of control
- T/C (dose: 45.0 mg/kg/injection, schedule: Q01DX001 (ip), vehicle: carboxymethylcellulose (CMC)): 120 % of control
- T/C (dose: 50.0 mg/kg/injection, schedule: Q01DX Z (ip), vehicle: carboxymethylcellulose (CMC)): 97 % of control
- T/C (dose: 360.0 mg/kg/injection, schedule: Q01DX001 (ip), vehicle: carboxymethylcellulose (CMC)): 91 % of control

Structure (SMILES): O=C(O)c1ccccc1C(=O)OC1C=CC2CCC1C2 (stereo not given)
- T/C (dose: 100.0 mg/kg/injection, schedule: Q01DX001 (ip), vehicle: carboxymethylcellulose (CMC)): 112 % of control
- T/C (dose: 200.0 mg/kg/injection, schedule: Q01DX001 (ip), vehicle: carboxymethylcellulose (CMC)): 90 % of control
- T/C (dose: 400.0 mg/kg/injection, schedule: Q01DX001 (ip), vehicle: carboxymethylcellulose (CMC)): 96 % of control

Structure (SMILES): CCCN(CCC)c1ccc(SC#N)cc1
- T/C [1]: 98 % of control
- T/C [2]: 95 % of control

Structure (SMILES): CC(C)(C)CC(C)(C)c1ccc(OCCOc2ccc(NS(=O)(=O)c3ccc(N)c([N+](=O)[O-])c3)cc2)cc1
- T/C [3]: 94 % of control
- T/C [4]: 92 % of control

Structure (SMILES): Cc1ccc(S(=O)(=O)ON=C2c3ccccc3-c3ccccc32)cc1
- T/C (dose: 25.0 mg/kg/injection, schedule: Q01DX009 (ip), vehicle: Klucel (hydroxypropylcellulose) (HPC)): 96 % of control
- T/C (dose: 50.0 mg/kg/injection, schedule: Q01DX009 (ip), vehicle: Klucel (hydroxypropylcellulose) (HPC)): 96 % of control
- T/C (dose: 100.0 mg/kg/injection, schedule: Q01DX001 (ip), vehicle: Klucel (hydroxypropylcellulose) (HPC)): 101 % of control
- T/C (dose: 100.0 mg/kg/injection, schedule: Q01DX009 (ip), vehicle: Klucel (hydroxypropylcellulose) (HPC)): 100 % of control
- T/C (dose: 100.0 mg/kg/injection, schedule: Q04DX003 (ip), vehicle: Klucel (hydroxypropylcellulose) (HPC)): 98 % of control
- T/C (dose: 200.0 mg/kg/injection, schedule: Q01DX001 (ip), vehicle: Klucel (hydroxypropylcellulose) (HPC)): 99 % of control
- T/C (dose: 200.0 mg/kg/injection, schedule: Q01DX009 (ip), vehicle: Klucel (hydroxypropylcellulose) (HPC)): 88 % of control and 91 % of control
- T/C (dose: 200.0 mg/kg/injection, schedule: Q04DX003 (ip), vehicle: Klucel (hydroxypropylcellulose) (HPC)): 93 % of control
- T/C (dose: 400.0 mg/kg/injection, schedule: Q01DX001 (ip), vehicle: Klucel (hydroxypropylcellulose) (HPC)): 105 % of control
- T/C (dose: 400.0 mg/kg/injection, schedule: Q04DX003 (ip), vehicle: Klucel (hydroxypropylcellulose) (HPC)): 103 % of control

Structure (SMILES): CC(C)(C)C1CCCCC1O (stereo not given)
- T/C [1]: 92 % of control
- T/C [2]: 97 % of control
- T/C (dose: 400.0 mg/kg/injection, schedule: Q01DX001 (ip), vehicle: saline): 92 % of control

Structure (SMILES): CNC(=O)c1ccccc1
- T/C (dose: 100.0 mg/kg/injection, schedule: Q04DX003 (ip), vehicle: saline): 104 % of control
- T/C (dose: 200.0 mg/kg/injection, schedule: Q04DX003 (ip), vehicle: saline): 98 % of control
- T/C (dose: 400.0 mg/kg/injection, schedule: Q04DX003 (ip), vehicle: saline): 98 % of control

Structure (SMILES): CCN(CC)C(=S)SC(C)C(=O)OC (stereo not given)
- T/C (dose: 100.0 mg/kg/injection, schedule: Q04DX002 (ip), vehicle: Klucel (hydroxypropylcellulose) (HPC)): 96 % of control
- T/C (dose: 200.0 mg/kg/injection, schedule: Q04DX002 (ip), vehicle: Klucel (hydroxypropylcellulose) (HPC)): 107 % of control
- T/C (dose: 400.0 mg/kg/injection, schedule: Q04DX002 (ip), vehicle: Klucel (hydroxypropylcellulose) (HPC)): 103 % of control

Structure (SMILES): O=C(O)/C(=C\c1ccccc1Br)c1ccc(C(F)(F)F)cc1[N+](=O)[O-]
- T/C (dose: 100.0 mg/kg/injection, schedule: Q01DX009 (ip), vehicle: saline sonified): 109 % of control
- T/C (dose: 200.0 mg/kg/injection, schedule: Q01DX009 (ip), vehicle: saline sonified): 98 % of control

Structure (SMILES): CNC(=O)O/N=C(C)/C(C)=N/OC(=O)NC
- T/C [5]: 93 % of control
- T/C [6]: 87 % of control
- T/C [7]: 87 % of control

Structure (SMILES): CCCC(Cc1cccs1)C(=O)O (stereo not given)
- T/C [5]: 101 % of control
- T/C [6]: 97 % of control
- T/C [7]: 97 % of control

Structure (SMILES): CCCCCCCCCCCCCCCCCC(=O)OCCOC(=O)CCCCCCCCCCCCCCCCC
- T/C (dose: 75.0 mg/kg/injection, schedule: Q01DX009 (ip), vehicle: other): 103 % of control
- T/C (dose: 100.0 mg/kg/injection, schedule: Q04DX002 (ip), vehicle: other): 88 % of control
- T/C (dose: 150.0 mg/kg/injection, schedule: Q01DX009 (ip), vehicle: other): 96 % of control
- T/C (dose: 200.0 mg/kg/injection, schedule: Q04DX002 (ip), vehicle: other): 98 % of control
- T/C (dose: 300.0 mg/kg/injection, schedule: Q01DX009 (ip), vehicle: other): 111 % of control

Structure (SMILES): O=C(O)c1cccc2cccc(C3SCCS3)c12
- T/C [3]: 101 % of control
- T/C [4]: 104 % of control
- T/C (dose: 400.0 mg/kg/injection, schedule: Q04DX003 (ip), vehicle: saline with Tween-80): 90 % of control

Structure (SMILES): COc1ccc(/C=N\NC(=O)CNC(=O)Nc2cccc(Cl)c2)cc1OC
- T/C (dose: 50.0 mg/kg/injection, schedule: Q01DX009 (ip), vehicle: saline with Tween-80): 88 % of control
- T/C (dose: 100.0 mg/kg/injection, schedule: Q01DX009 (ip), vehicle: saline with Tween-80): 92 % of control
- T/C (dose: 200.0 mg/kg/injection, schedule: Q01DX009 (ip), vehicle: saline with Tween-80): 88 % of control
